Experimental findings from ChEMBL document CHEMBL1201862, “PubChem BioAssay data set” (2004) are described below.

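Growth conditions: 96-well plates. Treatment: test compound, 48 hours, 5 concentrations. Analysis: linear interpolation between bracketing concentrations; unreached endpoints set to highest concentration. Here, GI50 denotes the concentration required for 50% inhibition of growth.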 The source made the active and inactive calls. Cut-off read from the data, not from the text of the source: active = GI50 up to about 1.1 µM and inactive = higher. Some results are limits rather than exact numbers.

Among the test systems are DLD-1; DMS-273; LXFL 529; M19-MEL; RXF 631; XF498; HOP-18; KM-20L2; BT-549.
Test in all cases: growth of human tumour cells (NCI), 48 h

As for `Oc1cc(-c2ccc[nH]2)nc2cc3c(cc12)OCO3`, the GI50 with DLD-1 was 34.4 µM (inactive); in the assay with DMS-273 it was 32.2 µM (inactive); in the assay on LXFL 529, 28.4 µM (inactive); in the assay with M19-MEL, 39 µM (inactive); with RXF 631, 47.5 µM (inactive); in the assay on XF498, 21.1 µM (inactive).
Consider `COc1ccc(C2C(C)C(=O)C(C)C(c3ccc(OC)cc3)N2N=O)cc1` (stereo not given), for which the GI50 with DLD-1 is > 1000 µM (inactive); in the assay on DMS-273, > 514 µM (inactive); in the assay with HOP-18, > 100 µM (inactive); with KM-20L2, > 925 µM (inactive); with LXFL 529 it was > 750 µM (inactive); in the assay on M19-MEL it was > 750 µM (inactive). The GI50 was > 95.3 µM (inactive) in the assay with RXF 631 and 166 µM (inactive) in the assay with XF498.
Regarding `CSC(=N\c1ccccc1)/N=C(\SCc1ccccc1)N(C)C`, the GI50 in the assay on BT-549 was 1.42 µM (inactive); with DMS-273, 0.59 µM (active); in the assay on HOP-18 it was 0.774 µM (active); in the assay with LXFL 529, 0.454 µM (active); in the assay on M19-MEL, 1.66 µM (inactive); with RXF 631, 1.38 µM (inactive). The GI50 with XF498 was 1.33 µM (inactive).
Regarding `CCCCCCCCCCCCCCCC(=O)OCC1OC(n2cc(F)c(=O)[nH]c2=O)C(NC(=O)N(CCCl)N=O)C(O)C1O` (stereo not given), the GI50 in the assay on DLD-1 was 2.84 µM (inactive); with DMS-273, 0.343 µM (active); in the assay with HOP-18, 16.4 µM (inactive); in the assay on KM-20L2, 5.15 µM (inactive); in the assay with LXFL 529 it was 5.3 µM (inactive); in the assay on M19-MEL, 2.82 µM (inactive). For the same compound, in the assay with RXF 631, the GI50 was 3.08 µM (inactive).
As to `O=c1[nH]cc(OCC(F)(F)F)c(=O)[nH]1`, the GI50 with DLD-1, in the assay on DMS-273, in the assay with HOP-18, in the assay on KM-20L2, with LXFL 529 and with M19-MEL was > 100 µM (inactive) in each case. Moreover, the GI50 with RXF 631 and in the assay with XF498 was > 100 µM (inactive) throughout.
On to `COC1N(C2CC(O)C(CO)O2)C(=O)NC(=O)C1(F)Br` (stereo not given), for which the GI50 is 25 µM (inactive) in the assay with BT-549; 16.5 µM (inactive) in the assay with DLD-1; 14.7 µM (inactive) in the assay on DMS-273; > 50 µM (inactive) in the assay on HOP-18; 16.6 µM (inactive) with KM-20L2; 24.4 µM (inactive) with LXFL 529. The values for the GI50 in the assay on RXF 631 and in the assay on XF498 were 6.84 µM (inactive) and 17.3 µM (inactive), respectively.
For `Cc1cc(-c2c(F)cc3c4nn([C@H]5CC[C@@H](N(C)C)CC5)c(=O)c-4cn(C4CC4)c3c2F)cc(C)n1`, the GI50 is 0.479 µM (active) with BT-549; 0.0428 µM (active) in the assay on DLD-1; 0.00594 µM (active) in the assay with DMS-273; 0.197 µM (active) in the assay on HOP-18; 0.14 µM (active) in the assay with KM-20L2; 0.0528 µM (active) with LXFL 529. Moreover, the GI50 is 0.0891 µM (active) in the assay on M19-MEL, 0.0355 µM (active) in the assay with RXF 631 and 0.318 µM (active) with XF498.
As for `CC(=O)NNc1nc(C)c(C(=O)NNC(=O)C(=O)Nc2ccc(C)cc2[N+](=O)[O-])s1`, the GI50 in the assay with DLD-1 is > 100 µM (inactive); with DMS-273, > 100 µM (inactive); in the assay on HOP-18, > 100 µM (inactive); with KM-20L2, > 100 µM (inactive); in the assay with LXFL 529, > 100 µM (inactive); in the assay on M19-MEL, 60.4 µM (inactive). Moreover, in the assay with RXF 631, the GI50 was > 100 µM (inactive).
For the compound `CC(C)C12C=CC(C)(CC1)n1c(=O)c3cc4ccccc4cc3c(=O)n12` (stereo not given), the GI50 with DLD-1 is 38.7 µM (inactive); with DMS-273 it was 40.6 µM (inactive); in the assay on KM-20L2, 31.7 µM (inactive); in the assay with LXFL 529 it was 34 µM (inactive); in the assay with M19-MEL, 66.8 µM (inactive); in the assay on RXF 631, 54.3 µM (inactive). In the assay with XF498, the GI50 was 26.4 µM (inactive).
For the compound `C=CCCCCCCCCC(=O)NS(=O)(=O)c1ccccc1`, the GI50 is 96.6 µM (inactive) in the assay on DLD-1; 88.1 µM (inactive) in the assay with DMS-273; 40.9 µM (inactive) in the assay on HOP-18; > 100 µM (inactive) in the assay on KM-20L2; > 100 µM (inactive) with LXFL 529; > 100 µM (inactive) in the assay with M19-MEL. Further, the GI50 in the assay with RXF 631 and in the assay on XF498 was > 100 µM (inactive) throughout.
On to `COc1ccc(C=O)c([N+](=O)[O-])c1`, for which the GI50 with DMS-273 is 25.4 µM (inactive); with HOP-18, 38.8 µM (inactive); with KM-20L2 it was 14 µM (inactive); with M19-MEL, 63.5 µM (inactive); with RXF 631, 57.7 µM (inactive); with XF498, 13.3 µM (inactive).
In the case of `CCOC(=O)C1S/C(=N/c2ccc(Cl)cc2C)N=C1C` (stereo not given), the GI50 in the assay on DLD-1 was 15.1 µM (inactive); with DMS-273, 24.2 µM (inactive); in the assay with HOP-18 it was 45.8 µM (inactive); in the assay with KM-20L2 it was 17.4 µM (inactive); in the assay with LXFL 529, 18 µM (inactive); with M19-MEL, 20 µM (inactive). Further, the GI50 in the assay on RXF 631 was 21.1 µM (inactive); in the assay on XF498 it was 20.9 µM (inactive).
Regarding `CCCCCCCCCCCCCC(=O)OCC1OC(=O)CC1O` (stereo not given), the GI50 with DLD-1 was 34.8 µM (inactive); in the assay with DMS-273, > 100 µM (inactive); with HOP-18 it was 0.437 µM (active); in the assay with KM-20L2, > 100 µM (inactive); in the assay with LXFL 529 it was > 100 µM (inactive); in the assay with RXF 631 it was > 100 µM (inactive). The GI50 with XF498 was > 100 µM (inactive).
Turning to `C[C@@H]1[C@H](c2ccccc2)O[B-]2(c3ccc(Br)cc3)OC(=O)C[N+]12C` (stereo not given in full), the GI50 with DLD-1 is > 100 µM (inactive); in the assay on HOP-18, > 100 µM (inactive); with KM-20L2 it was > 100 µM (inactive); in the assay on LXFL 529, 86.5 µM (inactive); in the assay with M19-MEL, > 100 µM (inactive); in the assay on RXF 631, > 100 µM (inactive). Also, in the assay with XF498, the GI50 is 97.1 µM (inactive).
Regarding `COc1ccc(C2Oc3c(cc(O)c(OC)c3C)[C@@H]2C)cc1OC` (stereo not given in full), the GI50 is > 100 µM (inactive) with DLD-1; 47.6 µM (inactive) in the assay on DMS-273; > 100 µM (inactive) with HOP-18; > 100 µM (inactive) in the assay on KM-20L2; 65.9 µM (inactive) with LXFL 529; 86.1 µM (inactive) in the assay with M19-MEL. In addition, the values for the GI50 with RXF 631 and in the assay on XF498 were > 100 µM (inactive) and 51.8 µM (inactive), respectively.
For `CC1(CO)OC1COCc1ccccc1` (stereo not given), the GI50 in the assay with DLD-1, in the assay on DMS-273, in the assay on KM-20L2, in the assay with LXFL 529, in the assay on RXF 631 and in the assay with XF498 was > 100 µM (inactive) throughout.
On to `C=CCc1cc(-c2cc(CC=C)c(O)c(CN(CC)CC)c2)cc(CN(CC)CC)c1O`, for which the GI50 with BT-549 was > 49.2 µM (inactive); with DLD-1, 70.1 µM (inactive); in the assay with DMS-273 it was 32.2 µM (inactive); in the assay on HOP-18, > 100 µM (inactive); in the assay on KM-20L2, 14.5 µM (inactive); with LXFL 529, 46.6 µM (inactive). The figures for the GI50 in the assay on M19-MEL and in the assay with RXF 631 were 18.3 µM (inactive) and 14.6 µM (inactive), respectively.
